{"source": "paper PMC10537403", "about": "(Viruses, 2023)", "format_in_all_cases": "cell-based", "key": {"[1]": {"tested_on": "canine distemper virus (CDV, strain Onderstepoort)", "experiment": "Antiviral activity against CDV, plaque assay, time of addition assays", "settings": "VERO/hSLAM cells, co-treatment, virus pre-treatment, cell pre-treatment, post-treatment"}, "[2]": {"tested_on": "Schmallenberg virus (SBV)", "settings": "BHK-21 cells, SBV 200 TCID50 incubated with peptide 1 h, CPE at 72 h, MTT staining"}, "[3]": {"tested_on": "caprine herpesvirus type 1 (CpHV-1, reference Swiss strain E/CH)", "experiment": "Antiviral activity against CpHV-1, plaque assay, time of addition assays", "settings": "MDBK cells"}, "[4]": {"tested_on": "VERO/hSLAM, BHK-21, and MDBK cell lines", "experiment": "Cytotoxicity, MTT assay", "settings": "2 and 24 h, peptides […] to 100 μM"}, "[5]": {"tested_on": "bovine herpesvirus type 1 (BoHV-1, Cooper strain)", "experiment": "Antiviral activity against BoHV-1, plaque assay, time of addition assays", "settings": "MDBK cells"}}, "note": "No end group written: not given here."}
{"substance": "H-GILDAIKAIAKAAG-OH [Hylaseptin-P1, amphibian peptide derived from Leptopelis aubryi]", "values": [{"measurement": "Inhibitory effect against CDV in all the time-addition assays (in words)", "setting": "[1]", "result": "did not show an inhibitory effect"}, {"measurement": "Activity against SBV infection (in words)", "setting": "[2]", "result": "any activity"}, {"measurement": "Antiviral action against CpHV-1 (in words)", "setting": "[3]", "result": "no antiviral action"}, {"measurement": "Cytotoxicity (in words)", "setting": "[4]", "result": "not cytotoxic even at higher concentrations tested"}, {"measurement": "Antiviral action against BoHV-1 (in words)", "setting": "[5]", "result": "no antiviral action"}]}
{"substance": "H-GLADFLNKAVGKVVDFVKS-NH2 [Deserticolin-1, amphibian peptide secreted by Crinia deserticola]", "values": [{"measurement": "Inhibitory effect against CDV in all the time-addition assays (in words)", "setting": "[1]", "result": "did not show an inhibitory effect"}, {"measurement": "Activity against SBV infection (in words)", "setting": "[2]", "result": "any activity"}, {"measurement": "Antiviral action against CpHV-1 (in words)", "setting": "[3]", "result": "no antiviral action"}, {"measurement": "Cytotoxicity (in words)", "setting": "[4]", "result": "not cytotoxic even at higher concentrations tested"}, {"measurement": "Antiviral action against BoHV-1 (in words)", "setting": "[5]", "result": "no antiviral action"}]}
{"substance": "RIGVLLARLPKLFSLFKLMGKKV-NH2 [RV-23]", "values": [{"measurement": "Activity against SBV infection (in words)", "setting": "[2]", "result": "able to reduce SBV infection with a higher efficacy"}]}
